From PubChem BioAssay (NCI)
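1) Cells in 96-well plates. 2) Compound, 48 h, 5 concentrations. 3) Linear interpolation between surrounding doses. 4) Unreached endpoint = highest concentration. GI50: concentration for 50% inhibition of growth. TGI marks complete inhibition of growth.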

Experiments:
Assay in all cases: inhibition of tumour cell growth, NCI panel, 48 h; in the data active = GI50 below about 0.43 µM; inactive = the rest
[1] = system: A549 NSCLC
[2] = system: BT-549 breast
[3] = system: CAKI-1 renal
[4] = system: DU-145 prostate
[5] = system: HCC-2998 colon
[6] = system: HCT-15 colon
[7] = system: IGROV1 ovarian
[8] = system: LOX IMVI melanoma
[9] = system: MDA-MB-435
[10] = system: RXF 393 renal
[11] = system: T-47D breast

COc1ccc(N2C(=O)CSC2c2cc(OC)c(OC)c(OC)c2)cc1 (stereo unspecified)
39.9 µM: TGI [5]
72.2 µM: TGI [4]
92.9 µM: TGI [8]
83.4 µM: TGI [1]
52.1 µM: TGI [2]
44.4 µM: TGI [6]
62.7 µM: TGI [3]
> 100 µM: TGI [7]
85.2 µM: TGI [9]

Cc1cc(=O)[nH]c(S(=O)(=O)NC(=S)Nc2ccc(Br)cc2)n1
> 100 µM: TGI [2] | TGI [3] | TGI [4] | TGI [5] | TGI [6] | TGI [7] | TGI [9] | TGI [10] | TGI [11]

Nc1ncc(Cc2nn3c(COc4ccc(Cl)cc4)nnc3s2)s1
> 100 µM: TGI [1] | TGI [3] | TGI [4] | TGI [5] | TGI [7] | TGI [9] | TGI [10] | TGI [11]
19.1 µM: TGI [6]

COC(=O)C1CC(C=O)=C(SC)N1 (stereo unspecified)
> 50 µM: TGI [1] | TGI [2] | TGI [3] | TGI [4] | TGI [5] | TGI [6] | TGI [7] | TGI [9] | TGI [10]

C=C1C(=O)OC2C1CC1OC2C(C)CCC/C(C)=C\CCC1(C)O (stereo unspecified)
13.8 µM: TGI [8]
49.5 µM: TGI [7]
> 78.3 µM: TGI [1]
63.5 µM: TGI [5]
61.4 µM: TGI [3]
63.6 µM: TGI [6]
17.9 µM: TGI [10]

CCCCN=C(OC1C=CCCC1)SC (stereo unspecified)
> 100 µM: TGI [1] | TGI [2] | TGI [4] | TGI [5] | TGI [6] | TGI [7] | TGI [9] | TGI [11]

OCC(CO)CC1COc2ccccc2O1 (stereo unspecified)
> 10 µM: TGI [1] | TGI [3] | TGI [4] | TGI [5] | TGI [6] | TGI [7] | TGI [8] | TGI [9] | TGI [10] | TGI [11]

Cn1c(=O)c2[nH]cnc2n(C)c1=O
> 100 µM: TGI [1] | TGI [3] | TGI [4] | TGI [5] | TGI [6] | TGI [7] | TGI [8] | TGI [11]

CC1Oc2c(c(O)cc3oc(=O)cc(-c4ccccc4)c23)C(=O)C1C (stereo unspecified)
> 100 µM: TGI [3] | TGI [6] | TGI [7] | TGI [8]

Fc1ccccc1C1SCC2=Nc3ccccc3CN21 (stereo unspecified)
> 100 µM: TGI [1] | TGI [2] | TGI [3] | TGI [4] | TGI [5] | TGI [6] | TGI [8] | TGI [9] | TGI [10] | TGI [11]

CC(C)=CCC/C(C)=C/CCC1(C)C2COC(=O)C21 (stereo unspecified)
89 µM: TGI [8]
> 100 µM: TGI [2] | TGI [3] | TGI [4] | TGI [5] | TGI [6] | TGI [7] | TGI [9] | TGI [10]

CC(C)(CN1CCCCC1)C(=O)CC(SCCS(=O)(=O)O)c1ccc(Cl)c(Cl)c1 (stereo unspecified)
11.2 µM: TGI [10]
12.9 µM: TGI [3]
21 µM: TGI [1]
5.35 µM: TGI [6]
4.57 µM: TGI [9]
13 µM: TGI [2]
26.2 µM: TGI [5]
13.5 µM: TGI [7]
23.4 µM: TGI [4]

CN1C(C(=O)Nc2ccccn2)=C(O)c2ccccc2S1(=O)=O
> 100 µM: TGI [1] | TGI [2] | TGI [3] | TGI [4] | TGI [6] | TGI [8] | TGI [9] | TGI [10] | TGI [11]

CCOc1cc(C=Nc2ccc(Oc3ccc(Cl)cc3)c(Cl)c2)ccc1O
39.9 µM: TGI [8]
60.6 µM: TGI [7]
> 100 µM: TGI [1] | TGI [4] | TGI [9] | TGI [11]
47.3 µM: TGI [6]
59.4 µM: TGI [3]
43.4 µM: TGI [5]
52 µM: TGI [2]

COc1ccc(CNc2cnc3cc(N)ccc3n2)cc1OC
> 100 µM: TGI [1] | TGI [3] | TGI [5] | TGI [6] | TGI [8]

O.O=[Se](=O)(O)O.[NH-]C1CCCCC1[NH-].[Pt+2] (stereo unspecified)
30.5 µM: TGI [10]
78.6 µM: TGI [3]
> 74.7 µM: TGI [8]
> 100 µM: TGI [1] | TGI [5] | TGI [6] | TGI [7]
inactive: GI50 [1] 5.26 µM | GI50 [3] 4.56 µM | GI50 [5] > 46.1 µM | GI50 [6] 8.39 µM | GI50 [7] 7.98 µM | GI50 [8] 8.21 µM | GI50 [10] 4.63 µM

O=C1C(=O)C(CCCO)(CCCO)CCCCCCCCC1(CCCO)CCCO
68.8 µM: TGI [10]
> 100 µM: TGI [1] | TGI [3] | TGI [4] | TGI [5] | TGI [6] | TGI [7] | TGI [8] | TGI [9] | TGI [11]

CCCCC[C@@H]1OC(=O)[C@@]2(CC3c4ccccc4C2c2ccccc23)[C@H]1C(=O)OC
> 100 µM: TGI [1] | TGI [2] | TGI [3] | TGI [4] | TGI [5] | TGI [6] | TGI [7] | TGI [8] | TGI [9] | TGI [10]

Clc1cccc(Cl)c1C1ON=C(c2ccccc2)N1C12CC3CC(CC(C3)C1)C2 (stereo unspecified)
> 100 µM: TGI [1] | TGI [3] | TGI [4] | TGI [5] | TGI [6] | TGI [7] | TGI [9] | TGI [10] | TGI [11]
63.7 µM: TGI [8]

COc1ccc(/C(Cl)=C(\C=O)c2ccc(Cl)cc2)cc1
57.3 µM: TGI [10]
23.8 µM: TGI [8]
42.1 µM: TGI [7]
> 100 µM: TGI [1] | TGI [3] | TGI [5] | TGI [6]

CC(=O)Nc1oc(C)nc1C#N
> 100 µM: TGI [1] | TGI [3] | TGI [4] | TGI [6] | TGI [7] | TGI [8] | TGI [9] | TGI [10]

O=C(c1ccccc1)c1ccc2c(c1)N=C(c1ccc(Cl)c(Cl)c1)CC(c1ccc3ccccc3c1)N2 (stereo unspecified)
> 100 µM: TGI [1] | TGI [3] | TGI [5] | TGI [6] | TGI [7] | TGI [8] | TGI [10]

C#Cc1ccccc1C(=O)OC
> 100 µM: TGI [1] | TGI [5] | TGI [6] | TGI [7] | TGI [8] | TGI [10]

Cn1cnc([N+](=O)[O-])c1Sc1nncc2[nH]cnc12
> 100 µM: TGI [1] | TGI [2] | TGI [3] | TGI [5] | TGI [6] | TGI [7] | TGI [8] | TGI [9] | TGI [11]
